Measurements published in patent publication US11021529B2, “Antimicrobial constructs and uses thereof” (priority 2017, dated 2021).
≈ marks a conversion by molar mass, not a printed value. Where two headings read alike, the source gives them in different places.

Columns and labels:
Format in all cases: cell-based
P. aeruginosa strain Z61 = experiment: MIC in hyperpermeable P. aeruginosa strain Z61 (Table 3); details: Pseudomonas aeruginosa
[1] = tested on: P. aeruginosa strain PA14; experiment: MIC in wild-type P. aeruginosa strain PA14 (Table 3); details: Pseudomonas aeruginosa
[2] = tested on: P. aeruginosa strain PA01; experiment: MIC in wild-type P. aeruginosa strain PA01 (Table 3); details: Pseudomonas aeruginosa
P. aeruginosa [3] = experiment: Super-resolution microscopy of membrane association and permeabilization; details: fluorescently labeled peptide or potentiator
Source text: In order to identify peptides which would improve the penetration of small molecules into bacteria library of 30 peptide-linezolid conjugates was synthesized using antimicrobial peptides curated from literature. Linezolid is a small molecule that is normally unable to kill gram-negative bacteria due to its inability to cross the membrane. The peptide-linezolid library was screened in a growth inhibition assay in P. aeruginosa. […] WLBU2 is part of a family of helical cationic peptides that were designed to specifically kill P. aeruginosa. Other members of this peptide family, WLBU1 and LBU2, were synthesized in tandem with P. aeruginosa targeting peptides (P9b and EKR) and conjugated to linezolid. These peptide-drug conjugates were evaluated for their ability to inhibit P. aeruginosa and cross validated for mammalian cell toxicity.
To visualize membrane permeabilization of WLBU2, P. aeruginosa was incubated with Alexa Fluor 488-labeld WLBU2 potentiator for 15 minutes and subsequently washed 2 times with phosphate buffer solution to remove unbound potentiator. Bacteria were then stained with a membrane dye.

P. aeruginosa [4] = experiment: Checkerboard assays (fractional inhibitory concentration indices) with WLBU2 potentiator; details: drug combined with WLBU2 potentiator (W2-grafted dextran)
Source text: In some embodiments, checkerboard assays can be used to determine if two antimicrobial agents have synergy, additive, or antagonistic effects when dosed together. Checkboard assays determine the interaction and potency of two test articles when used concurrently. Using Lorian methodology, the effect on potency of the combination of antimicrobials in comparison to their individual activities, represented as the Fractional Inhibitory Concentration (FIC) index value. To quantify the interactions between the antimicrobials being tested, the FIC index (the combination of antimicrobials that produced the greatest change from the individual antimicrobial's MIC) value is calculated for each strain and antimicrobial combination: (A/MICA)+(B/MICB)=FICA+FICB=FIC Index, where A and B are the MIC of each antimicrobial in combination (in a single well), and MICA and MICB are the MIC of each antimicrobial individually.

[5] = tested on: P. aeruginosa strain PA01; experiment: Growth (MIC) assay in P. aeruginosa strain PA01; details: peptide concentration range 0-5 μM
Experimental: The minimal inhibitory concentrations (MIC) were measured in P. aeruginosa and cell viability in mammalian cells at a peptide concentration range between 0-5 μM. Toxicity was evaluated in NIH 3T3 mouse fibroblasts and Neuro-2a neuroblastoma. To negatively select against tandem peptides that may cause red blood lysis when administered in animals, the peptides were also screened in a hemolysis assay. In the range of concentrations tested, no membrane-active peptide had inhibitory activity against bacteria when not in tandem with dKK (FIG. 2), supporting the rationale of the tandem peptide architecture. At these concentrations, dKK alone also had no activity against P. aeruginosa (FIG. 2). Since it is advantageous to identify antibacterial agents which have narrow-spectrum activity, antibacterial efficacy against other gram-negative bacterial species (E. coli) and a gram-positive bacterial species (S. aureus; FIG. 1B) was also assessed. The best performing tandem peptide was lactoferrin-dKK (LACT-dKK). Lactoferrin peptide ([…], SEQ ID NO: 1) is from a protein in the transferrin family with known membrane interactions with bacteria. […]
For each experiment, P. aeruginosa strain PA01 was started from a frozen glycerol stock and cultured overnight. […] The number of colony forming units (CFU) per mL was determined by titering cultures with known absorbance values. […]

CC(=O)NC[C@H]1CN(c2ccc(N3CCOCC3)c(F)c2)C(=O)O1 [Linezolid]
MIC (P. aeruginosa strain Z61): 8 µg/mL (≈ 23.7 µM)
MIC ([1]; PA14): > 128 µg/mL
MIC ([2]; PA01): > 128 µg/mL

RRWVRRVRRWVRRVVRVVRRWVRR (Synthetic WLBU2)
localization in P. aeruginosa (super-resolution microscopy) (P. aeruginosa [3]): able to associate with the membrane and localize to the cytosol

CO[C@@H]1[C@@H](OC(N)=O)[C@@H](O)[C@H](Oc2ccc3c(O)c(NC(=O)c4ccc(O)c(CC=C(C)C)c4)c(=O)oc3c2C)OC1(C)C [novobiocin]
fractional inhibitory concentration indices (FICIs), interaction with WLBU2 potentiator (P. aeruginosa [4]): synergy

O=C(O)c1cn(C2CC2)c2cc(N3CCNCC3)c(F)cc2c1=O [Ciprofloxacin]
MIC (P. aeruginosa strain Z61): < 0.25 µg/mL
MIC ([1]; P. aeruginosa strain PA14, read-out: MIC): 0.5 µg/mL (≈ 1.51 µM)
MIC ([2]; P. aeruginosa strain PA01, read-out: MIC): 2 µg/mL (≈ 6.04 µM)

C=C[C@]1(C)C[C@@H](OC(=O)CS[C@@H]2C[C@H]3CC[C@@H](C2)N3C)[C@]2(C)[C@H](C)CC[C@]3(CCC(=O)[C@H]32)[C@@H](C)[C@@H]1O [retapamulin]
fractional inhibitory concentration indices (FICIs), interaction with WLBU2 potentiator (P. aeruginosa [4]): synergy

D(KLAKLAK)2 (KLAKLAKKLAKLAK; D-amino acids; Synthetic - antimicrobial peptide comprised of D-amino acids) [dKK]
inhibitory activity against bacteria / P. aeruginosa [5]: no activity
